Where “and” joins values, the source holds several entries; their conditions need not be identical. Equal entries are not always repeated. Toxic doses and inconclusive results are not listed. Rule as the data show it: active = T/C of 150% or more; inactive = T/C below 125%.
Test system: L1210 leukemia ip in BDF1 mice, survival T/C
Experiment: NCI In Vivo Anticancer Drug Screen. Data for tumor model L1210 Leukemia (intraperitoneal) in B6D2F1 (BDF1) mice
Conditions: higher = longer survival
Method in brief: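 Each compound was tested against a transplantable tumor grown in mice. The endpoint was survival, with treated animals benchmarked against vehicle controls as a simple ratio.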

Measured: T/C

N=C(N)SCc1c2ccccc2c(CSC(=N)N)c2ccccc12
inactive: endpoint: mean survival time, dose: 0.1 mg/kg/injection, schedule: Q07DX002 (ip), vehicle: saline 97 % of control | endpoint: mean survival time, dose: 0.11 mg/kg/injection, schedule: Q01DX Z (ip), vehicle: saline 110 % of control | endpoint: mean survival time, dose: 0.2 mg/kg/injection, schedule: Q01DX Z (ip), vehicle: carboxymethylcellulose (CMC) 113 % of control | endpoint: mean survival time, dose: 0.2 mg/kg/injection, schedule: Q07DX002 (ip), vehicle: saline 103 % of control | endpoint: mean survival time, dose: 0.3 mg/kg/injection, schedule: Q01DX Z (ip), vehicle: carboxymethylcellulose (CMC) 110 % of control | endpoint: mean survival time, dose: 0.3 mg/kg/injection, schedule: Q03HX008 (ip), vehicle: other 113 % of control | endpoint: mean survival time, dose: 0.37 mg/kg/injection, schedule: Q01DX Z (ip), vehicle: carboxymethylcellulose (CMC) 103 % of control | endpoint: mean survival time, dose: 0.39 mg/kg/injection, schedule: Q07DX002 (ip), vehicle: saline 92 % of control | endpoint: mean survival time, dose: 0.62 mg/kg/injection, schedule: Q#A X Z (ip), vehicle: carboxymethylcellulose (CMC) 111 % of control | endpoint: mean survival time, dose: 0.63 mg/kg/injection, schedule: Q01DX Z (im), vehicle: carboxymethylcellulose (CMC) 112 % of control | endpoint: mean survival time, dose: 0.63 mg/kg/injection, schedule: Q01DX Z (sc), vehicle: carboxymethylcellulose (CMC) 106 % of control | endpoint: mean survival time, dose: 0.75 mg/kg/injection, schedule: Q01DX Z (im), vehicle: carboxymethylcellulose (CMC) 106 % of control | endpoint: mean survival time, dose: 0.78 mg/kg/injection, schedule: Q07DX002 (ip), vehicle: saline 110 % of control | endpoint: mean survival time, dose: 1.25 mg/kg/injection, schedule: Q01DX009 (sc), vehicle: carboxymethylcellulose (CMC) 92 % of control | endpoint: mean survival time, dose: 1.25 mg/kg/injection, schedule: Q01DX Z (sc), vehicle: carboxymethylcellulose (CMC) 103 % of control and 112 % of control | endpoint: mean survival time, dose: 1.5 mg/kg/injection, schedule: Q01DX Z (ip), vehicle: saline 112 % of control | endpoint: mean survival time, dose: 2.5 mg/kg/injection, schedule: Q01DX009 (sc), vehicle: carboxymethylcellulose (CMC) 92 % of control | endpoint: mean survival time, dose: 2.5 mg/kg/injection, schedule: Q01DX Z (sc), vehicle: carboxymethylcellulose (CMC) 106 % of control and 113 % of control | endpoint: mean survival time, dose: 3.12 mg/kg/injection, schedule: Q01DX Z (im), vehicle: carboxymethylcellulose (CMC) 112 % of control | endpoint: mean survival time, dose: 3.12 mg/kg/injection, schedule: Q01DX Z (ip), vehicle: carboxymethylcellulose (CMC) 112 % of control | endpoint: mean survival time, dose: 5.0 mg/kg/injection, schedule: Q01DX006 (iv), vehicle: carboxymethylcellulose (CMC) 108 % of control | endpoint: mean survival time, dose: 5.0 mg/kg/injection, schedule: Q01DX009 (sc), vehicle: carboxymethylcellulose (CMC) 92 % of control | endpoint: mean survival time, dose: 5.0 mg/kg/injection, schedule: Q01DX Z (im), vehicle: carboxymethylcellulose (CMC) 113 % of control | endpoint: mean survival time, dose: 10.0 mg/kg/injection, schedule: Q01DX006 (iv), vehicle: carboxymethylcellulose (CMC) 96 % of control and 111 % of control | endpoint: mean survival time, dose: 10.0 mg/kg/injection, schedule: Q01DX009 (sc), vehicle: carboxymethylcellulose (CMC) 98 % of control | endpoint: mean survival time, dose: 10.0 mg/kg/injection, schedule: Q01DX Z (oral), vehicle: carboxymethylcellulose (CMC) 108 % of control | endpoint: mean survival time, dose: 10.0 mg/kg/injection, schedule: Q01DX Z (sc), vehicle: carboxymethylcellulose (CMC) 108 % of control | endpoint: mean survival time, dose: 12.5 mg/kg/injection, schedule: Q01DX Z (im), vehicle: carboxymethylcellulose (CMC) 110 % of control | endpoint: mean survival time, dose: 12.5 mg/kg/injection, schedule: Q03HX008 (ip), vehicle: carboxymethylcellulose (CMC) 107 % of control | endpoint: mean survival time, dose: 17.0 mg/kg/injection, schedule: Q01DX001 (ip), vehicle: carboxymethylcellulose (CMC) 111 % of control | endpoint: mean survival time, dose: 20.0 mg/kg/injection, schedule: Q01DX001 (sc), vehicle: carboxymethylcellulose (CMC) 98 % of control | endpoint: mean survival time, dose: 20.0 mg/kg/injection, schedule: Q01DX006 (iv), vehicle: carboxymethylcellulose (CMC) 112 % of control | endpoint: mean survival time, dose: 20.0 mg/kg/injection, schedule: Q01DX009 (sc), vehicle: carboxymethylcellulose (CMC) 95 % of control and 100 % of control | endpoint: mean survival time, dose: 20.0 mg/kg/injection, schedule: Q01DX Z (im), vehicle: carboxymethylcellulose (CMC) 106 % of control | endpoint: mean survival time, dose: 20.0 mg/kg/injection, schedule: Q01DX Z (oral), vehicle: carboxymethylcellulose (CMC) 111 % of control | endpoint: mean survival time, dose: 20.0 mg/kg/injection, schedule: Q01DX Z (sc), vehicle: carboxymethylcellulose (CMC) 106 % of control and 109 % of control | endpoint: mean survival time, dose: 25.0 mg/kg/injection, schedule: Q01DX017 (ip), vehicle: carboxymethylcellulose (CMC) 102 % of control | endpoint: mean survival time, dose: 25.0 mg/kg/injection, schedule: Q03HX040 (ip), vehicle: carboxymethylcellulose (CMC) 100 % of control | endpoint: mean survival time, dose: 30.0 mg/kg/injection, schedule: Q01DX009 (sc), vehicle: carboxymethylcellulose (CMC) 100 % of control | endpoint: mean survival time, dose: 32.0 mg/kg/injection, schedule: Q03HX024 (ip), vehicle: carboxymethylcellulose (CMC) 97 % of control | endpoint: mean survival time, dose: 32.0 mg/kg/injection, schedule: Q03HX024 (ip), vehicle: other 101 % of control | endpoint: mean survival time, dose: 40.0 mg/kg/injection, schedule: Q01DX001 (sc), vehicle: carboxymethylcellulose (CMC) 104 % of control | endpoint: mean survival time, dose: 41.0 mg/kg/injection, schedule: Q01DX Z (ip), vehicle: saline 105 % of control | endpoint: mean survival time, dose: 44.0 mg/kg/injection, schedule: Q01DX009 (sc), vehicle: carboxymethylcellulose (CMC) 101 % of control | endpoint: mean survival time, dose: 48.0 mg/kg/injection, schedule: Q01DX Z (ip), vehicle: carboxymethylcellulose (CMC) 101 % of control | endpoint: mean survival time, dose: 50.0 mg/kg/injection, schedule: Q03HX008 (ip), vehicle: carboxymethylcellulose (CMC) 113 % of control | endpoint: mean survival time, dose: 50.0 mg/kg/injection, schedule: Q03HX016 (ip), vehicle: carboxymethylcellulose (CMC) 94 % of control | endpoint: mean survival time, dose: 50.0 mg/kg/injection, schedule: Q03HX024 (ip), vehicle: carboxymethylcellulose (CMC) 102 % of control | endpoint: mean survival time, dose: 61.5 mg/kg/injection, schedule: Q01DX Z (ip), vehicle: saline 92 % of control | endpoint: mean survival time, dose: 66.0 mg/kg/injection, schedule: Q01DX009 (sc), vehicle: carboxymethylcellulose (CMC) 102 % of control | endpoint: mean survival time, dose: 80.0 mg/kg/injection, schedule: Q01DX001 (sc), vehicle: carboxymethylcellulose (CMC) 103 % of control | endpoint: mean survival time, dose: 80.0 mg/kg/injection, schedule: Q01DX Z (oral), vehicle: carboxymethylcellulose (CMC) 105 % of control and 106 % of control | endpoint: mean survival time, dose: 100.0 mg/kg/injection, schedule: Q01DX009 (ip), vehicle: saline 92 % of control | endpoint: mean survival time, dose: 100.0 mg/kg/injection, schedule: Q01DX009 (sc), vehicle: carboxymethylcellulose (CMC) 107 % of control | endpoint: mean survival time, dose: 100.0 mg/kg/injection, schedule: Q06HX004 (ip), vehicle: carboxymethylcellulose (CMC) 93 % of control | endpoint: mean survival time, dose: 100.0 mg/kg/injection, schedule: Q08DX003 (ip), vehicle: carboxymethylcellulose (CMC) 108 % of control | endpoint: mean survival time, dose: 160.0 mg/kg/injection, schedule: Q01DX001 (sc), vehicle: carboxymethylcellulose (CMC) 103 % of control | endpoint: mean survival time, dose: 200.0 mg/kg/injection, schedule: Q01DX009 (ip), vehicle: carboxymethylcellulose (CMC) 113 % of control | endpoint: mean survival time, dose: 200.0 mg/kg/injection, schedule: Q01DX017 (ip), vehicle: carboxymethylcellulose (CMC) 105 % of control | endpoint: mean survival time, dose: 200.0 mg/kg/injection, schedule: Q01DX Z (im), vehicle: carboxymethylcellulose (CMC) 112 % of control | endpoint: mean survival time, dose: 200.0 mg/kg/injection, schedule: Q08DX002 (ip), vehicle: carboxymethylcellulose (CMC) 113 % of control | endpoint: mean survival time, dose: 200.0 mg/kg/injection, schedule: Q08DX003 (ip), vehicle: carboxymethylcellulose (CMC) 104 % of control | endpoint: mean survival time, dose: 200.0 mg/kg/injection, schedule: Q#A X002 (ip), vehicle: saline 111 % of control | endpoint: mean survival time, dose: 266.0 mg/kg/injection, schedule: Q01DX001 (sc), vehicle: carboxymethylcellulose (CMC) 103 % of control | endpoint: mean survival time, dose: 300.0 mg/kg/injection, schedule: Q03DX Z (ip), vehicle: saline 113 % of control | endpoint: mean survival time, dose: 320.0 mg/kg/injection, schedule: Q01DX001 (sc), vehicle: carboxymethylcellulose (CMC) 103 % of control | endpoint: mean survival time, dose: 320.0 mg/kg/injection, schedule: Q01DX Z (oral), vehicle: carboxymethylcellulose (CMC) 112 % of control | endpoint: mean survival time, dose: 400.0 mg/kg/injection, schedule: Q01DX001 (oral), vehicle: carboxymethylcellulose (CMC) 106 % of control | endpoint: mean survival time, dose: 400.0 mg/kg/injection, schedule: Q01DX001 (sc), vehicle: carboxymethylcellulose (CMC) 102 % of control | endpoint: mean survival time, dose: 400.0 mg/kg/injection, schedule: Q04DX005 (ip), vehicle: carboxymethylcellulose (CMC) 97 % of control | endpoint: mean survival time, dose: 400.0 mg/kg/injection, schedule: Q07DX Z (ip), vehicle: saline 102 % of control | endpoint: mean survival time, dose: 400.0 mg/kg/injection, schedule: Q08DX002 (ip), vehicle: saline 97 % of control | endpoint: mean survival time, dose: 600.0 mg/kg/injection, schedule: Q01DX001 (sc), vehicle: carboxymethylcellulose (CMC) 98 % of control | endpoint: mean survival time, dose: 640.0 mg/kg/injection, schedule: Q01DX Z (oral), vehicle: carboxymethylcellulose (CMC) 112 % of control | endpoint: mean survival time, dose: 800.0 mg/kg/injection, schedule: Q01DX001 (oral), vehicle: carboxymethylcellulose (CMC) 105 % of control | endpoint: mean survival time, dose: 800.0 mg/kg/injection, schedule: Q08DX002 (ip), vehicle: carboxymethylcellulose (CMC) 109 % of control and 111 % of control | endpoint: mean survival time, dose: 800.0 mg/kg/injection, schedule: Q08DX003 (ip), vehicle: carboxymethylcellulose (CMC) 107 % of control | endpoint: mean survival time, dose: 900.0 mg/kg/injection, schedule: Q01DX001 (sc), vehicle: carboxymethylcellulose (CMC) 112 % of control | endpoint: mean survival time, dose: 1200.0 mg/kg/injection, schedule: Q01DX001 (oral), vehicle: carboxymethylcellulose (CMC) 97 % of control | endpoint: mean survival time, dose: 1280.0 mg/kg/injection, schedule: Q01DX Z (oral), vehicle: carboxymethylcellulose (CMC) 101 % of control | endpoint: mean survival time, dose: 1340.0 mg/kg/injection, schedule: Q01DX001 (oral), vehicle: carboxymethylcellulose (CMC) 107 % of control | endpoint: mean survival time, dose: 1600.0 mg/kg/injection, schedule: Q01DX001 (oral), vehicle: carboxymethylcellulose (CMC) 100 % of control | endpoint: mean survival time, dose: 2000.0 mg/kg/injection, schedule: Q01DX001 (oral), vehicle: carboxymethylcellulose (CMC) 112 % of control | endpoint: mean survival time, dose: 3000.0 mg/kg/injection, schedule: Q01DX001 (oral), vehicle: carboxymethylcellulose (CMC) 101 % of control | endpoint: median survival time, dose: 50.0 mg/kg/injection, schedule: Q04DX003 (ip), vehicle: steriod suspending solution 111 % of control | endpoint: median survival time, dose: 100.0 mg/kg/injection, schedule: Q01DX009 (ip), vehicle: steriod suspending solution 94 % of control | endpoint: median survival time, dose: 100.0 mg/kg/injection, schedule: Q04DX003 (ip), vehicle: steriod suspending solution 111 % of control | endpoint: median survival time, dose: 125.0 mg/kg/injection, schedule: Q01DX001 (sc), vehicle: steriod suspending solution 100 % of control | endpoint: median survival time, dose: 250.0 mg/kg/injection, schedule: Q01DX001 (sc), vehicle: steriod suspending solution 111 % of control | endpoint: median survival time, dose: 400.0 mg/kg/injection, schedule: Q04DX003 (sc), vehicle: steriod suspending solution 111 % of control | endpoint: median survival time, dose: 500.0 mg/kg/injection, schedule: Q01DX001 (sc), vehicle: steriod suspending solution 100 % of control | endpoint: median survival time, dose: 800.0 mg/kg/injection, schedule: Q04DX003 (sc), vehicle: steriod suspending solution 111 % of control | endpoint: median survival time, dose: 1000.0 mg/kg/injection, schedule: Q01DX001 (sc), vehicle: steriod suspending solution 105 % of control

From PubChem BioAssay AID248 (DTP/NCI, 2004)
